Experimental findings from patent US7276631B2, “Cyclopentylamine and cyclohexylamine derivatives as NK-1/SSRI antagonists” (Bristol-Myers Squibb Company, priority 2004, dated 2007) are described below.

Some results are limits rather than exact numbers.

For orientation: IC50 means the concentration that gives 50% inhibition.

Experiment [1] deals with T1, human serotonin transporters (Homo sapiens, UniProt P31645).
T1 construct: expressed in transfected cells; host or cells: HEK-293 cells stably expressing hSERT (membranes)
T1 sequence (P31645 whole entry): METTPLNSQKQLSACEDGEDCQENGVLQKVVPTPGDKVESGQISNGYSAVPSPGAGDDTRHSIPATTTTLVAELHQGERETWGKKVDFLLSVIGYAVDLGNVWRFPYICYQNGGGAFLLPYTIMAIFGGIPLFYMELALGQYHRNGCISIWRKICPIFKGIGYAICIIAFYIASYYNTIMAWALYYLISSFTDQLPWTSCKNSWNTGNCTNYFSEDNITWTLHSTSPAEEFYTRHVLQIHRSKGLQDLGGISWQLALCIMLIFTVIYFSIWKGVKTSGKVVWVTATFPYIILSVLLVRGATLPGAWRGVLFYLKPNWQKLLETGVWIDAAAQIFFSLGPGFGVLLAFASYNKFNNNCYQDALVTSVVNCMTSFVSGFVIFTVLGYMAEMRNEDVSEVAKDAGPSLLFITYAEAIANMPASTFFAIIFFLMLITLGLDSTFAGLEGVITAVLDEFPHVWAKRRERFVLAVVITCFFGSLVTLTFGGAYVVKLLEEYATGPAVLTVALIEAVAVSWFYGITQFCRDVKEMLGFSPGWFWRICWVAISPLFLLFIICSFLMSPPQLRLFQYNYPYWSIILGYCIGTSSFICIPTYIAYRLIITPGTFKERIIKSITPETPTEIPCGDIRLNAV
Kind of experiment: Serotonin transporter binding assay ([3H]-citalopram, HEK-hSERT cell membranes). Particulars: [3H]-citalopram displacement, read-out: SERT IC50. As for the experimental part: HEK-293 cells that stably express human serotonin transporters (HEK-hSERT cells) were grown at 37° C. in 5% CO2 as a monolayer in medium consisting of EMEM supplemented with 10% fetal bovine serum and G418 sulfate (500 μg/ml). To prepare membranes for radioligand binding experiments, cells were rinsed twice with phosphate-buffered saline (138 mM NaCl, 4.1 mM KCl, 5.1 mM Na2PO4, 1.5 mM […], 11.1 mM glucose, pH 7.4). Cells were transferred from plates to polypropylene tubes (16×100 mm), centrifuged at 1,200×g for 5 min and were frozen at −80° C. until assay. Following centrifugation, pellets were resuspended by homogenization in buffer consisting of 50 mM Tris (pH 7.7 at 25° C.), 120 mM NaCl and 5 mM KCl and then centrifuged at 32,000×g for 10 min. Following centrifugation, supernatants were discarded and pellets were resuspended in buffer consisting of 50 mM Tris (pH 7.4 at 25° C.), 150 mM NaCl and 5 mM KCl. Membrane homogenates (200 μl/plate) were incubated with 1 nM [^3H]-citalopram (specific activity=85 Ci/mmol) and increasing concentrations of test compounds for 1 hr at 25° C. in a total volume of 250 μl. The assay buffer consisted of 50 mM Tris (pH 7.4 at 25° C.), 120 mM NaCl and 5 mM KCl (pH 7.4 with conc. HCl). Plates were incubated for 1 hr at 25° C., then filtered through 0.5% PEI treated Whatman GF/B filters using a Brandel cell harvester. Filters were washed three times with 3 ml of ice-cold tris wash buffer. Non-specific binding was defined with 10 μM fluoxetine. Amount of radioligand bound in the presence and absence of competitor was analyzed by plotting (−)log drug concentration versus the amount of radioligand specifically bound. The midpoint of the displacement curve (IC50, nM), signifies the potency. Ki values were calculated using the method of Cheng and Prusoff [Cheng, Y.-C. and Prusoff, W. H., Biochemical Pharmacology, Vol. 22, pp. 3099-3108, Pergamon Press (1973)].

Experiment [2] concerns the target T2, neurokinin-1 (NK-1) receptor (Homo sapiens, UniProt P25103).
T2 construct: a human glioblastoma-astrocytoma cell line that endogenously express the neurokinin-1 (NK-1) receptor; endogenous in cells; host or cells: U373 human glioblastoma-astrocytoma cells (membranes)
Kind of experiment: NK-1 binding (competition with [125I] Substance P, U373 cell membranes). To be noted: [125I] Substance P displacement. As for the experimental part: U373 cells, a human glioblastoma-astrocytoma cell line that endogenously express the neurokinin-1 (NK-1) receptor, were grown in a monolayer culture at 37° C. in 5% CO2 and fed with Minimum Essential Medium (MEM) supplemented with 10% fetal bovine serum. Membranes were prepared as follows: Cells were washed twice with ice-cold phosphate-buffered saline (pH 7.4) and then incubated for 5 to 10 minutes with ice-cold 10 mM Tris buffer (pH 7.4) containing 5 mM EDTA. Cells were removed from plates, homogenized, and centrifuged at 32,000×g for 20 minutes. The resulting supernatant was discarded, and the pellet resuspended by homogenization in 50 mM Tris buffer (pH 7.4) containing 1 mM EDTA and centrifuged at 32,000×g for 20 minutes. The resulting supernatant was discarded, and the pellet resuspended by homogenization in NK-1 binding assay buffer (50 mM Tris-HCL (pH 7.4), 3 mM MnCl2, 200 μg/ml BSA, 5 μg/ml chymostatin, 40 μg/ml bacitracin and 4 μg/ml leupeptin).
On the day of an experiment the membrane preparation was thawed, homogenized and diluted with NK-1 binding assay buffer to the appropriate concentration. Competition binding assays were performed in 96 well plate format by incubating membranes (5-10 ug/well) with Bolton Hunter labeled [^125I] Substance P, at a concentration of […], and concentrations of drugs ranging from 10000 to 0.01 nM. Samples were incubated for 30 min at 20° C. then filtered through GF/B glass fiber filters (pretreated with 1% polyethyleneimine and 0.3% Triton X-100) using a Brandel cell harvester. The filters were then washed with 10 ml ice cold 50 mM Tris-HCL (pH 7.4) containing 3 mM MgCl2. Non-specific was defined in the presence of 2 μM L-733,060 (a non-peptide NK-1 antagonist). Amount of radioligand bound in the presence and absence of competitor was analyzed by plotting (−)log drug concentration versus the amount of radioligand specifically bound. The midpoint of the displacement curve (IC50, nM), signifies the potency. Ki values were calculated using the method of Cheng and Prusoff [Cheng, Y.-C. and Prusoff, W. H., Biochemical Pharmacology, Vol. 22, pp. 3099-3108, Pergamon Press (1973)].

T2 sequence (P25103 whole entry): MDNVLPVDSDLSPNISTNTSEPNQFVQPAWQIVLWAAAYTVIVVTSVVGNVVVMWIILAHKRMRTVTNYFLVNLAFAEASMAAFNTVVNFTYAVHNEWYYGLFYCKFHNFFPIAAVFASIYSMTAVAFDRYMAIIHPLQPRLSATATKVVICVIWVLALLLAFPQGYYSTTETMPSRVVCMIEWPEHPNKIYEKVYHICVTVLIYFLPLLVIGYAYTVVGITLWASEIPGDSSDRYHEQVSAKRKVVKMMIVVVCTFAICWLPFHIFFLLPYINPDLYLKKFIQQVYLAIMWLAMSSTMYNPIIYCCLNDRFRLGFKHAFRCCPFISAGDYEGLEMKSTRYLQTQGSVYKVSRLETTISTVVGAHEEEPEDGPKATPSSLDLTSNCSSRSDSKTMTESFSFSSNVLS

With `N[C@H]1CC[C@](COCc2cc(C(F)(F)F)cc(C(F)(F)F)c2)(c2ccccc2)C1` [Example 7, (1S,3R)-3-((3,5-bis(trifluoromethyl)benzyloxy)methyl)-3-phenylcyclopentanamine], the IC50 in experiment [1] is 20 to 100 nM; in experiment [2] it was less than 20 nM.
As for `COCCN(C)C1CCC(COCc2cc(C(F)(F)F)cc(C(F)(F)F)c2)(c2ccccc2)C1` (stereo not drawn) [Example 5, 3-((3,5-bis(trifluoromethyl)benzyloxy)methyl)-N-(2-methoxyethyl)-N-methyl-3-phenylcyclopentanamine], the IC50 in experiment [2] was less than 20 nM.
Regarding `CNC1CCCC(COCc2cc(C(F)(F)F)cc(C(F)(F)F)c2)(c2ccccc2)C1` (stereo not drawn) [Example 11, 3-((3,5-bis(trifluoromethyl)benzyloxy)methyl)-N-methyl-3-phenylcyclohexanamine], the IC50 is 100 to 300 nM in experiment [1] and less than 20 nM in experiment [2].
For `FC(F)(F)c1cc(COCC2(c3ccccc3)CCC(N3CCCC3)C2)cc(C(F)(F)F)c1` (stereo not drawn) [Example 2, 1-(3-((3,5-Bis(trifluoromethyl)benzyloxy)methyl)-3-phenylcyclopentyl)pyrrolidine], the IC50 in experiment [2] was less than 20 nM.
Regarding `FC(F)(F)c1cc(COCC2(c3ccccc3)CCCC(N3CCCCC3)C2)cc(C(F)(F)F)c1` (stereo not drawn) [Example 18, 1-(3-((3,5-bis(trifluoromethyl)benzyloxy)methyl)-3-phenylcyclohexyl)piperidine], the IC50 in experiment [2] was in the range of 20 to 100 nM.
In experiment [2], `CN1CCN(C2CCCC(COCc3cc(C(F)(F)F)cc(C(F)(F)F)c3)(c3ccccc3)C2)CC1` (stereo not drawn) [Example 19, 1-(3-((3,5-bis(trifluoromethyl)benzyloxy)methyl)-3-phenylcyclohexyl)-4-methylpiperazine] had an IC50 of 100 to 300 nM.
Regarding `CN(C)C1CCC(COCc2cc(C(F)(F)F)cc(C(F)(F)F)c2)(c2ccccc2)C1` (stereo not drawn) [Example 6, 3-((3,5-bis(trifluoromethyl)benzyloxy)methyl)-N,N-dimethyl-3-phenylcyclopentanamine], the IC50 in experiment [1] was 20 to 100 nM; in experiment [2], less than 20 nM.
In turn, `CN(C)C1CCCC(COCc2cc(C(F)(F)F)cc(C(F)(F)F)c2)(c2ccccc2)C1` (stereo not drawn) [Example 12, 3-((3,5-bis(trifluoromethyl)benzyloxy)methyl)-N,N-dimethyl-3-phenylcyclohexanamine] gave an IC50 in experiment [2] of 100 to 300 nM.
As for `FC(F)(F)c1cc(COCC2(c3ccccc3)CCCC(NC3CC3)C2)cc(C(F)(F)F)c1` (stereo not drawn) [Example 15, 3-((3,5-bis(trifluoromethyl)benzyloxy)methyl)-N-cyclopropyl-3-phenylcyclohexanamine], in experiment [2], the concentration for half-maximal inhibition (IC50) was in the range of 20 to 100 nM.
Turning to `N[C@@H]1CC[C@](COCc2cc(C(F)(F)F)cc(C(F)(F)F)c2)(c2ccccc2)C1` [Example 9, (1R,3R)-3-((3,5-bis(trifluoromethyl)benzyloxy)methyl)-3-phenylcyclopentanamine], the IC50 in experiment [1] is 20 to 100 nM; in experiment [2], less than 20 nM.
For the compound `FC(F)(F)c1cc(COCC2(c3ccccc3)CCCC(N3CCOCC3)C2)cc(C(F)(F)F)c1` (stereo not drawn) [Example 16, 4-(3-((3,5-bis(trifluoromethyl)benzyloxy)methyl)-3-phenylcyclohexyl)morpholine], the concentration for half-maximal inhibition (IC50) in experiment [2] lay in the range of 100 to 300 nM.
As to `CCNC1CCCC(COCc2cc(C(F)(F)F)cc(C(F)(F)F)c2)(c2ccccc2)C1` (stereo not drawn) [Example 14, 3-((3,5-bis(trifluoromethyl)benzyloxy)methyl)-N-ethyl-3-phenylcyclohexanamine], the 50% inhibitory concentration (IC50) in experiment [1] is 100 to 300 nM; in experiment [2], less than 20 nM.
The matching figures for `N[C@@H]1CC[C@@](COCc2cc(C(F)(F)F)cc(C(F)(F)F)c2)(c2ccccc2)C1` [Example 8, (1R,3S)-3-((3,5-bis(trifluoromethyl)benzyloxy)methyl)-3-phenylcyclopentanamine]: 100 to 300 nM and less than 20 nM.
The compound `FC(F)(F)c1cc(COCC2(c3ccccc3)CCC(NC3CC3)C2)cc(C(F)(F)F)c1` (stereo not drawn) [Example 4, 3-((3,5-Bis(trifluoromethyl)benzyloxy)methyl)-N-cyclopropyl-3-phenylcyclopentanamine] came in with an IC50 in experiment [2] of less than 20 nM.
`FC(F)(F)c1cc(COCC2(c3ccccc3)CCC(N3CCOCC3)C2)cc(C(F)(F)F)c1` (stereo not drawn) [Example 3, 4-(3-((3,5-bis(trifluoromethyl)benzyloxy)methyl)-3-phenylcyclopentyl)morpholine] gave an IC50 in experiment [2] of 20 to 100 nM.
With `CCN(CC)C1CCCC(COCc2cc(C(F)(F)F)cc(C(F)(F)F)c2)(c2ccccc2)C1` (stereo not drawn) [Example 13, 3-((3,5-bis(trifluoromethyl)benzyloxy)methyl)-N,N-diethyl-3-phenylcyclohexanamine], the IC50 in experiment [1] was 100 to 300 nM; in experiment [2], 20 to 100 nM.
In the case of `N[C@H]1CC[C@@](COCc2cc(C(F)(F)F)cc(C(F)(F)F)c2)(c2ccccc2)C1` [Example 10, (1S,3S)-3-((3,5-bis(trifluoromethyl)benzyloxy)methyl)-3-phenylcyclopentanamine], the IC50 in experiment [1] and in experiment [2] was less than 20 nM each time.
As to `FC(F)(F)c1cc(COCC2(c3ccccc3)CCCC(N3CCCC3)C2)cc(C(F)(F)F)c1` (stereo not drawn) [Example 17, 1-(3-((3,5-bis(trifluoromethyl)benzyloxy)methyl)-3-phenylcyclohexyl)pyrrolidine], in experiment [2], the IC50 was in the range of 100 to 300 nM.
Take `FC(F)(F)c1cc(COCC2(c3ccccc3)CCC(N3CCCCC3)C2)cc(C(F)(F)F)c1` (stereo not drawn) [Example 1, 1-(3-((3,5-Bis(trifluoromethyl)benzyloxy)methyl)-3-phenylcyclopentyl)piperidine]: the IC50 in experiment [2] was less than 20 nM.
